Several values for one entry are separate records, joined by “and”; a condition that tells them apart may be missing. Equal values may be shown once. Inconclusive results and toxic doses are left out. Peptide text beside a SMILES is read from it. * marks the point of attachment. Cbz = O=C(OCc1ccccc1)*
System: P388 leukemia ip, CD2F1 mice, survival T/C
Assay: NCI In Vivo Anticancer Drug Screen. Data for tumor model P388 Leukemia (intraperitoneal) in CD2F1 (CDF1) mice
Conditions: endpoint: median survival time, higher = longer survival
Procedure, shortened: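 Mice carrying the transplanted tumor received test compound or vehicle. Survival was recorded in each group, and the value is the treated-group measurement divided by that of the vehicle-treated control group.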

[1] = dose: 100.0 mg/kg/injection, schedule: Q01DX009 (ip), vehicle: saline
[2] = dose: 200.0 mg/kg/injection, schedule: Q01DX009 (ip), vehicle: saline
[3] = dose: 400.0 mg/kg/injection, schedule: Q01DX009 (ip), vehicle: saline
[4] = dose: 25.0 mg/kg/injection, schedule: Q01DX009 (ip), vehicle: other
[5] = dose: 50.0 mg/kg/injection, schedule: Q01DX005 (ip), vehicle: Klucel (hydroxypropylcellulose) (HPC)
[6] = dose: 100.0 mg/kg/injection, schedule: Q01DX005 (ip), vehicle: Klucel (hydroxypropylcellulose) (HPC)
[7] = dose: 200.0 mg/kg/injection, schedule: Q01DX005 (ip), vehicle: Klucel (hydroxypropylcellulose) (HPC)
[8] = dose: 60.0 mg/kg/injection, schedule: Q01DX005 (ip), vehicle: Klucel (hydroxypropylcellulose) (HPC)
[9] = dose: 120.0 mg/kg/injection, schedule: Q01DX005 (ip), vehicle: Klucel (hydroxypropylcellulose) (HPC)
[10] = dose: 240.0 mg/kg/injection, schedule: Q01DX005 (ip), vehicle: Klucel (hydroxypropylcellulose) (HPC)

## OC1CC2CCCCC2CC1c1ccccc1 (stereo unspecified)
dose: 50.0 mg/kg/injection, schedule: Q04DX002 (ip), vehicle: saline with Tween-80
  T/C: 100 % of control and 92 % of control
dose: 100.0 mg/kg/injection, schedule: Q04DX002 (ip), vehicle: saline with Tween-80
  T/C: 111 % of control and 92 % of control
dose: 200.0 mg/kg/injection, schedule: Q04DX002 (ip), vehicle: saline with Tween-80
  T/C: 92 % of control and 97 % of control
dose: 400.0 mg/kg/injection, schedule: Q04DX002 (ip), vehicle: saline with Tween-80
  T/C: 116 % of control

## CCCC(C)Br (stereo unspecified)
[1]
  T/C: 109 % of control
[2]
  T/C: 114 % of control
[3]
  T/C: 115 % of control

## CNC(=O)OCc1c(COC(=O)NC)c(-c2ccc(Cl)c(Cl)c2)n2c1CCC2
dose: 12.5 mg/kg/injection, schedule: Q01DX009 (ip), vehicle: Klucel (hydroxypropylcellulose) (HPC)
  T/C: 153 % of control
dose: 25.0 mg/kg/injection, schedule: Q01DX009 (ip), vehicle: Klucel (hydroxypropylcellulose) (HPC)
  T/C: 160 % of control
dose: 50.0 mg/kg/injection, schedule: Q01DX009 (ip), vehicle: Klucel (hydroxypropylcellulose) (HPC)
  T/C: 155 % of control
dose: 100.0 mg/kg/injection, schedule: Q01DX009 (ip), vehicle: Klucel (hydroxypropylcellulose) (HPC)
  T/C: 188 % of control

## NCCNc1ccc(NCCN)c2c1C(=O)c1ccccc1C2=O
dose: 0.78 mg/kg/injection, schedule: Q01DX009 (ip), vehicle: distilled water + alcohol
  T/C: 150 % of control
dose: 2.0 mg/kg/injection, schedule: Q01DX009 (ip), vehicle: acid diluted with saline
  T/C: 185 % of control
dose: 3.13 mg/kg/injection, schedule: Q01DX009 (ip), vehicle: distilled water + alcohol
  T/C: 107 % of control
dose: 4.0 mg/kg/injection, schedule: Q01DX009 (ip), vehicle: acid diluted with saline
  T/C: 194 % of control
dose: 6.25 mg/kg/injection, schedule: Q01DX009 (ip), vehicle: distilled water + alcohol
  T/C: 159 % of control
dose: 8.0 mg/kg/injection, schedule: Q01DX009 (ip), vehicle: acid diluted with saline
  T/C: 203 % of control
dose: 12.5 mg/kg/injection, schedule: Q01DX009 (ip), vehicle: distilled water + alcohol
  T/C: 174 % of control
dose: 16.0 mg/kg/injection, schedule: Q01DX009 (ip), vehicle: acid diluted with saline
  T/C: 243 % of control
dose: 25.0 mg/kg/injection, schedule: Q01DX009 (ip), vehicle: distilled water + alcohol
  T/C: 215 % of control
[4]
  T/C: 158 % of control

## [Cl][Pt+2][Cl].[NH-]CCC[NH-]
dose: 6.25 mg/kg/injection, schedule: Q04DX002 (ip), vehicle: saline
  T/C: 178 % of control
dose: 12.5 mg/kg/injection, schedule: Q04DX002 (ip), vehicle: saline
  T/C: 183 % of control

## C1=CN2CC(c3ccccc3)N=C2S1 (stereo unspecified)
dose: 12.5 mg/kg/injection, schedule: Q01DX009 (ip), vehicle: other
  T/C: 99 % of control
[4]
  T/C: 102 % of control

## C=C(C)c1nc(N)nc(-c2cccc(-c3nc(N)nc(C(=C)C)n3)c2)n1
[5]
  T/C: 95 % of control
[6]
  T/C: 99 % of control
[7]
  T/C: 100 % of control

## CCCC1OC(C)(Cc2ccccc2)OCC1CC (stereo unspecified)
[1]
  T/C: 103 % of control
[2]
  T/C: 113 % of control
[3]
  T/C: 109 % of control

## [Cu+2].c1nn[nH]n1
dose: 12.5 mg/kg/injection, schedule: Q04DX003 (ip), vehicle: Klucel (hydroxypropylcellulose) (HPC)
  T/C: 93 % of control
dose: 25.0 mg/kg/injection, schedule: Q04DX003 (ip), vehicle: Klucel (hydroxypropylcellulose) (HPC)
  T/C: 97 % of control
dose: 50.0 mg/kg/injection, schedule: Q04DX003 (ip), vehicle: Klucel (hydroxypropylcellulose) (HPC)
  T/C: 95 % of control

## CC1=C/C(=N\[Se]c2ccccc2)C(=O)C(C)=C1
dose: 100.0 mg/kg/injection, schedule: Q04DX003 (ip), vehicle: Klucel (hydroxypropylcellulose) (HPC)
  T/C: 100 % of control
dose: 200.0 mg/kg/injection, schedule: Q04DX003 (ip), vehicle: Klucel (hydroxypropylcellulose) (HPC)
  T/C: 91 % of control
dose: 400.0 mg/kg/injection, schedule: Q04DX003 (ip), vehicle: Klucel (hydroxypropylcellulose) (HPC)
  T/C: 96 % of control

## CN(C)N1C(=O)SCC(c2ccccc2)(c2ccccc2)C1=O
[8]
  T/C: 97 % of control
[9]
  T/C: 96 % of control
[10]
  T/C: 86 % of control

## CN1C(=O)C2CC(=O)N(Cc3ccccc3)C(=O)C2C1=O (stereo unspecified)
dose: 50.0 mg/kg/injection, schedule: Q01DX005 (ip), vehicle: saline with Tween-80
  T/C: 96 % of control
dose: 100.0 mg/kg/injection, schedule: Q01DX005 (ip), vehicle: saline with Tween-80
  T/C: 87 % of control
dose: 200.0 mg/kg/injection, schedule: Q01DX005 (ip), vehicle: saline with Tween-80
  T/C: 87 % of control

## CCCNC(=O)CCC(NS(=O)(=O)c1ccc(NC(C)=O)cc1)C(=O)O (stereo unspecified)
[5]
  T/C: 100 % of control
[6]
  T/C: 98 % of control
[7]
  T/C: 100 % of control

## O=C(CCl)N/N=C(\c1ccccc1)c1ccc(Br)cc1
dose: 45.0 mg/kg/injection, schedule: Q01DX009 (ip), vehicle: saline with Tween-80
  T/C: 103 % of control
dose: 90.0 mg/kg/injection, schedule: Q01DX009 (ip), vehicle: saline with Tween-80
  T/C: 98 % of control
dose: 180.0 mg/kg/injection, schedule: Q01DX009 (ip), vehicle: saline with Tween-80
  T/C: 97 % of control

## COC1OC(COC(=O)c2ccccc2)C(=O)C(OC(=O)c2ccccc2)C1N(O)C1C(COC(=O)c2ccccc2)OC2OC(C)(C)OC21 (stereo unspecified)
[5]
  T/C: 101 % of control
[6]
  T/C: 105 % of control
[7]
  T/C: 100 % of control

## CNC(=O)OCc1c(COC(=O)NC)c(-c2c(F)cccc2F)n2c1CCC2
dose: 6.25 mg/kg/injection, schedule: Q01DX009 (ip), vehicle: water
  T/C: 166 % of control
dose: 12.5 mg/kg/injection, schedule: Q01DX009 (ip), vehicle: distilled water + Tween-80
  T/C: 155 % of control
dose: 25.0 mg/kg/injection, schedule: Q01DX009 (ip), vehicle: distilled water + Tween-80
  T/C: 108 % of control
dose: 25.0 mg/kg/injection, schedule: Q01DX009 (ip), vehicle: water
  T/C: 88 % of control

## O=C1CSC(c2ccc(Cl)cc2)N1c1nncs1 (stereo unspecified)
dose: 60.0 mg/kg/injection, schedule: Q01DX005 (ip), vehicle: saline with Tween-80
  T/C: 101 % of control
dose: 120.0 mg/kg/injection, schedule: Q01DX005 (ip), vehicle: saline with Tween-80
  T/C: 102 % of control
dose: 240.0 mg/kg/injection, schedule: Q01DX005 (ip), vehicle: saline with Tween-80
  T/C: 108 % of control

## CC(C)C(NC(=O)C(Cc1ccc(O)cc1)NC(=O)OCc1ccccc1)C(=O)O (stereo not drawn) (Cbz-Tyr-Val-OH; configuration not given here)
[5]
  T/C: 103 % of control
[6]
  T/C: 100 % of control
[7]
  T/C: 100 % of control

## CC(=O)OC1NC(=O)C(OC(C)=O)NC1=O (stereo unspecified)
dose: 25.0 mg/kg/injection, schedule: Q01DX005 (ip), vehicle: Klucel (hydroxypropylcellulose) (HPC)
  T/C: 100 % of control
[5]
  T/C: 98 % of control and 102 % of control (2×)
[6]
  T/C: 101 % of control (2×) and 120 % of control
[7]
  T/C: 102 % of control and 107 % of control and 110 % of control

## COc1cc(CC2c3cc(OC)c(OC)cc3CCN2C)c(Oc2cc3c(cc2OC)-c2c(OC)c(OC)c(OC)c4c2C(C3)N(C)CC4)cc1OC (stereo unspecified)
dose: 37.5 mg/kg/injection, schedule: Q01DX009 (ip), vehicle: Klucel (hydroxypropylcellulose) (HPC)
  T/C: 102 % of control
dose: 75.0 mg/kg/injection, schedule: Q01DX009 (ip), vehicle: Klucel (hydroxypropylcellulose) (HPC)
  T/C: 88 % of control
dose: 150.0 mg/kg/injection, schedule: Q01DX009 (ip), vehicle: Klucel (hydroxypropylcellulose) (HPC)
  T/C: 94 % of control

## COC(=O)/C=C1/Nc2c(N)nc(N)nc2NC1=O
dose: 100.0 mg/kg/injection, schedule: Q04DX003 (ip), vehicle: saline
  T/C: 108 % of control
dose: 200.0 mg/kg/injection, schedule: Q04DX003 (ip), vehicle: saline
  T/C: 94 % of control
dose: 400.0 mg/kg/injection, schedule: Q04DX003 (ip), vehicle: saline
  T/C: 95 % of control

## CC(=O)OCc1nc2ncnc(N)c2[nH]1
dose: 12.5 mg/kg/injection, schedule: Q01DX005 (ip), vehicle: distilled water + Tween-80
  T/C: 99 % of control
dose: 25.0 mg/kg/injection, schedule: Q01DX005 (ip), vehicle: distilled water + Tween-80
  T/C: 103 % of control
dose: 50.0 mg/kg/injection, schedule: Q01DX005 (ip), vehicle: distilled water + Tween-80
  T/C: 108 % of control
dose: 100.0 mg/kg/injection, schedule: Q01DX005 (ip), vehicle: distilled water + Tween-80
  T/C: 97 % of control
dose: 200.0 mg/kg/injection, schedule: Q01DX005 (ip), vehicle: distilled water + Tween-80
  T/C: 97 % of control

## CC(=O)c1c(C)n(C)c2c1nnc1ccccc12
[8]
  T/C: 101 % of control
[9]
  T/C: 97 % of control
[10]
  T/C: 99 % of control

## CCc1nc(-c2ccccc2)nc2c1nc(Cc1ccccc1)n2Nc1ccccc1
dose: 100.0 mg/kg/injection, schedule: Q01DX001 (ip), vehicle: Klucel (hydroxypropylcellulose) (HPC)
  T/C: 88 % of control

— PubChem BioAssay AID330 (DTP/NCI, 2004)
